The subject of assay [1] is Puccinia recondita f. sp. tritici. As to the kind of experiment: Test K: wheat leaf rust, preventive spray on wheat seedlings.
In a further assay the test system is Plasmopara viticola. As to the kind of experiment: Test D: grape downy mildew, spray after inoculation of grape seedlings. Format: in vivo. To be noted: 200 ppm. The text has this: Upon removal, disease ratings were made. […] A dash (-) indicates no test results.
In the next assay the test system is Pythium aphanidermatum. As to the kind of experiment: Test A: bluegrass pythium blight, preventive spray on bluegrass seedlings. To be noted: 200 ppm.
Assay [2] concerns Colletotrichum orbiculare. As to the kind of experiment: Test B: cucumber Colletotrichum anthracnose, preventive spray on cucumber seedlings.
Assay [3] has as its system Erysiphe graminis f. sp. tritici. As to the kind of experiment: Test L: wheat powdery mildew, preventive spray on wheat seedlings.
For a further assay, the system named is Botrytis cinerea. As to the kind of experiment: Test E: tomato botrytis, preventive spray on tomato seedlings.
The test system of another assay is Septoria nodorum. As to the kind of experiment: Test H: wheat glum blotch, preventive spray on wheat seedlings.
Another assay deals with Phytophthora infestans. As to the kind of experiment: whole plant or invertebrate. To be noted: 200 ppm. Format: in vivo.
Another assay has as its system Rhizoctonia oryzae. As to the kind of experiment: Test G: turf brown patch, preventive spray on creeping bent grass seedlings.
The test system of another assay is Septoria tritici. As to the kind of experiment: Test J: wheat leaf blotch, preventive spray on wheat seedlings. It counts as in vivo. The text has this:
A dash (-) indicates no test results.

The subject of a further assay is fusarium graminearium. As to the kind of experiment: Test I: wheat head scab, preventive spray on wheat seedlings. To be noted: 200 ppm.

Marks after values point to notes of the source that are not given here.

Protocol for Rhizoctonia oryzae: (the causal agent of turf brown patch) and incubated in a saturated atmosphere at 27° C. for 24 h, and then moved to a growth chamber at 27° C. for 5 days, after which disease ratings were made.
Protocol for Septoria nodorum: (the causal agent of wheat glum blotch) and incubated in a saturated atmosphere at 20° C. for 48 h, and then moved to a growth chamber at 22° C. for 5 days, after which disease ratings were made.
Protocol for fusarium graminearium: (the causal agent of wheat head scab) and incubated in a saturated atmosphere at 20° C. for 72 h, and then moved to a growth chamber at 22° C. for 5 days, after which disease ratings were made.

Take `O=c1c(-n2cncn2)nc(Cl)c(-c2c(F)cccc2F)n1Cc1ccccc1` [compound 105]: the “Test K disease control rating” value in assay [1] (200 ppm) turned out to be 100%. Also, in the assay on Plasmopara viticola, the “Test D disease control rating” value was determined as 0%. Also, in the assay on Pythium aphanidermatum, the “Test A disease control rating” value is given as 0%. Also, the “Test B disease control rating” value in assay [2] (200 ppm) was determined as 0%. The “Test L disease control rating” value in assay [3] (200 ppm) stood at 0%. The “Test E disease control rating” value with Botrytis cinerea (200 ppm) came out at 100%. Moreover, the “Test H disease control rating” value with Septoria nodorum (200 ppm) was determined as 64%. Besides, the “Test F disease control rating” value in the assay with Phytophthora infestans came out at 0%. Besides, the “Test G disease control rating” value with Rhizoctonia oryzae (200 ppm) was 24%. Besides, the “Test J disease control rating” value in the assay with Septoria tritici (200 ppm) worked out at 98%. The “Test I disease control rating” value in the assay on fusarium graminearium is 0%.
Regarding `N#Cc1nc(Cl)c(-c2c(F)cccc2F)n(Cc2ccccc2)c1=O` [compound 106], in assay [1] (200 ppm), the “Test K disease control rating” value came to 91%. Further, the “Test D disease control rating” value in the assay on Plasmopara viticola was 0%. Moreover, the “Test A disease control rating” value with Pythium aphanidermatum came to 0%. Further, the “Test B disease control rating” value in assay [2] (200 ppm) was 0%. Also, the “Test L disease control rating” value in [3] (200 ppm) is 94%. In addition, the “Test E disease control rating” value in the assay with Botrytis cinerea (200 ppm) is reported as 0%. Also, in the assay on Septoria nodorum (200 ppm), the “Test H disease control rating” value was 0%. The “Test F disease control rating” value in the assay with Phytophthora infestans was found to be 0%. Also, in the assay with Rhizoctonia oryzae (200 ppm), the “Test G disease control rating” value is 0%. Also, the “Test J disease control rating” value in the assay on Septoria tritici (200 ppm) is 12%. Further, the “Test I disease control rating” value with fusarium graminearium turned out to be 0%.
In the case of `CC(c1ccccc1)n1c(-c2c(F)cccc2F)c(Cl)nc(-n2cccn2)c1=O` (stereo not shown) [compound 107], the “Test K disease control rating” value in [1] (200 ppm) is recorded as 98%. Also, in the assay on Plasmopara viticola, the “Test D disease control rating” value is 0%. For the same molecule, the “Test A disease control rating” value in the assay on Pythium aphanidermatum turned out to be 0%. Also, the “Test B disease control rating” value in assay [2] (200 ppm) stood at 0%. Also, the “Test L disease control rating” value in [3] (200 ppm) stood at 0%. Further, the “Test E disease control rating” value in the assay with Botrytis cinerea (200 ppm) is given as 0%. Also, the “Test H disease control rating” value with Septoria nodorum (200 ppm) turned out to be 0%. The “Test F disease control rating” value in the assay with Phytophthora infestans is listed as 0%. The “Test G disease control rating” value with Rhizoctonia oryzae (200 ppm) stood at 0%. Moreover, the “Test J disease control rating” value in the assay on Septoria tritici (200 ppm) came out at 93%. For the same molecule, the “Test I disease control rating” value in the assay with fusarium graminearium is recorded as 69%.
Turning to `CC(c1ccccc1)n1c(-c2c(F)cccc2F)c(Cl)nc(-n2cncn2)c1=O` (stereo not shown) [compound 108], the “Test K disease control rating” value in assay [1] (200 ppm) is 0%. In addition, in the assay on Plasmopara viticola, the “Test D disease control rating” value came out at 0%. For the same molecule, in the assay with Pythium aphanidermatum, the “Test A disease control rating” value was 0%. Moreover, the “Test B disease control rating” value in assay [2] (200 ppm) is recorded as 0%. The “Test L disease control rating” value in assay [3] (200 ppm) turned out to be 0%. In addition, the “Test E disease control rating” value in the assay on Botrytis cinerea (200 ppm) amounted to 56%. Further, in the assay with Septoria nodorum (200 ppm), the “Test H disease control rating” value was determined as 0%. Besides, the “Test F disease control rating” value with Phytophthora infestans came out at 0%. Also, in the assay with Rhizoctonia oryzae (200 ppm), the “Test G disease control rating” value turned out to be 0%. Moreover, the “Test J disease control rating” value in the assay with Septoria tritici (200 ppm) amounted to 11%. The “Test I disease control rating” value with fusarium graminearium is on record as 0%.
In the case of `CC(c1ccccc1)n1c(-c2c(F)cccc2F)c(Cl)nc(C#N)c1=O` (stereo not shown) [compound 109], the “Test K disease control rating” value in assay [1] (200 ppm) was found to be 0%. Also, the “Test D disease control rating” value in the assay on Plasmopara viticola is recorded as 0%. For the same molecule, the “Test A disease control rating” value with Pythium aphanidermatum was determined as 0%. Moreover, in assay [2] (200 ppm), the “Test B disease control rating” value is given as 0%. In addition, the “Test L disease control rating” value in assay [3] (200 ppm) is on record as 0%. Further, the “Test E disease control rating” value with Botrytis cinerea (200 ppm) came out at 0%. In the assay on Septoria nodorum (200 ppm), the “Test H disease control rating” value was 0%. Besides, the “Test F disease control rating” value with Phytophthora infestans was found to be 0%. In addition, in the assay on Rhizoctonia oryzae (200 ppm), the “Test G disease control rating” value came to 0%. Besides, in the assay with Septoria tritici (200 ppm), the “Test J disease control rating” value was 0%. The “Test I disease control rating” value with fusarium graminearium came to 0%.
Regarding `CC(C)Cn1c(-c2c(Cl)ccc(Cl)c2Cl)c(Cl)nc(-n2cccn2)c1=O` [compound 121], in assay [1] (40 ppm (*)), the “Test K disease control rating” value is 99* %. In addition, the “Test D disease control rating” value in the assay with Plasmopara viticola is given as 0%. Further, in the assay with Pythium aphanidermatum, the “Test A disease control rating” value is 0%. For the same molecule, the “Test B disease control rating” value in assay [2] (40 ppm (*)) is 91* %. For the same molecule, the “Test L disease control rating” value in assay [3] (40 ppm (*)) is recorded as 0* %. For the same molecule, in the assay with Botrytis cinerea (40 ppm (*)), the “Test E disease control rating” value was 100* %. In the assay on Septoria nodorum (40 ppm (*)), the “Test H disease control rating” value was 99* %. The “Test F disease control rating” value with Phytophthora infestans was determined as 0%. In addition, the “Test G disease control rating” value with Rhizoctonia oryzae (40 ppm (*)) is on record as 44* %. The “Test J disease control rating” value in the assay with Septoria tritici (40 ppm (*)) is 100* %. Also, in the assay on fusarium graminearium, the “Test I disease control rating” value amounted to 0%.
Consider `CCC(C)Cn1c(-c2c(F)cccc2F)c(Cl)nc(NN(C)C)c1=O` (stereo not shown) [compound 134], for which, in [1] (40 ppm (*)), the “Test K disease control rating” value is listed as 28* %. The “Test D disease control rating” value in the assay on Plasmopara viticola came to 0%. Moreover, the “Test A disease control rating” value in the assay with Pythium aphanidermatum is recorded as 0%. Moreover, in [2] (40 ppm (*)), the “Test B disease control rating” value is reported as 0* %. Moreover, the “Test L disease control rating” value in assay [3] (40 ppm (*)) is given as 0* %. The “Test E disease control rating” value in the assay on Botrytis cinerea (40 ppm (*)) is on record as 0* %. Besides, the “Test H disease control rating” value with Septoria nodorum (40 ppm (*)) is recorded as 0* %. In addition, the “Test F disease control rating” value in the assay on Phytophthora infestans was 0%. For the same molecule, the “Test G disease control rating” value in the assay with Rhizoctonia oryzae (40 ppm (*)) is on record as 0* %. The “Test J disease control rating” value in the assay with Septoria tritici (40 ppm (*)) is recorded as 59* %. Besides, the “Test I disease control rating” value with fusarium graminearium came out at 89%.
`CCC(C)Cn1c(-c2c(F)cccc2F)c(Cl)nc(NN2CCOCC2)c1=O` (stereo not shown) [compound 135]: in assay [1] (40 ppm (*)), the “Test K disease control rating” value is listed as 0* %. The “Test D disease control rating” value with Plasmopara viticola was 0%. Besides, the “Test A disease control rating” value in the assay on Pythium aphanidermatum is given as 0%. Also, in assay [2] (40 ppm (*)), the “Test B disease control rating” value was 0* %. Further, the “Test L disease control rating” value in assay [3] (40 ppm (*)) is given as 0* %. Also, the “Test E disease control rating” value with Botrytis cinerea (40 ppm (*)) was 0* %. The “Test H disease control rating” value in the assay on Septoria nodorum (40 ppm (*)) is on record as 0* %. Besides, the “Test F disease control rating” value in the assay with Phytophthora infestans was found to be 0%. For the same molecule, the “Test G disease control rating” value in the assay on Rhizoctonia oryzae (40 ppm (*)) is 0* %. Besides, the “Test J disease control rating” value with Septoria tritici (40 ppm (*)) is on record as 0* %. Further, the “Test I disease control rating” value in the assay on fusarium graminearium worked out at 0%.
On to `Cc1cc(C)cc(-c2c(Cl)nc(-n3cncn3)c(=O)n2CC(C)C)c1` [compound 136], for which the “Test K disease control rating” value in assay [1] (40 ppm (*)) is 0* %. Further, in the assay on Plasmopara viticola, the “Test D disease control rating” value was 40%. Also, in the assay with Pythium aphanidermatum, the “Test A disease control rating” value was 0%. The “Test B disease control rating” value in assay [2] (40 ppm (*)) is 0* %. Moreover, in assay [3] (40 ppm (*)), the “Test L disease control rating” value was 0* %. For the same molecule, the “Test E disease control rating” value in the assay with Botrytis cinerea (40 ppm (*)) was 0* %. Further, the “Test H disease control rating” value in the assay with Septoria nodorum (40 ppm (*)) is on record as 0* %. For the same molecule, in the assay on Phytophthora infestans, the “Test F disease control rating” value came out at 58%. Further, the “Test G disease control rating” value in the assay on Rhizoctonia oryzae (40 ppm (*)) is 0* %. Further, the “Test J disease control rating” value in the assay with Septoria tritici (40 ppm (*)) was 28* %. The “Test I disease control rating” value in the assay on fusarium graminearium came to 0%.
With `Cc1cc(C)cc(-c2c(Cl)nc(-n3cccn3)c(=O)n2CC(C)C)c1` [compound 137], the “Test K disease control rating” value in assay [1] (40 ppm (*)) was 0* %. Moreover, the “Test D disease control rating” value with Plasmopara viticola worked out at 0%. Also, the “Test A disease control rating” value in the assay on Pythium aphanidermatum amounted to 0%. Further, the “Test B disease control rating” value in assay [2] (40 ppm (*)) is 0* %. In assay [3] (40 ppm (*)), the “Test L disease control rating” value is on record as 0* %. For the same molecule, in the assay with Botrytis cinerea (40 ppm (*)), the “Test E disease control rating” value is 0* %. In addition, the “Test H disease control rating” value with Septoria nodorum (40 ppm (*)) is 0* %. The “Test F disease control rating” value in the assay with Phytophthora infestans is 0%. Moreover, the “Test G disease control rating” value in the assay on Rhizoctonia oryzae (40 ppm (*)) is recorded as 0* %. For the same molecule, in the assay on Septoria tritici (200 ppm), the “Test J disease control rating” value is reported as 30%. The “Test I disease control rating” value in the assay with fusarium graminearium came to 0%.
Consider `CCCCn1c(-c2c(F)cccc2F)c(Cl)nc(-n2cccn2)c1=O` [compound 148], for which, in assay [1] (40 ppm (*)), the “Test K disease control rating” value is 97* %. Also, the “Test D disease control rating” value in the assay on Plasmopara viticola amounted to 73%. Also, the “Test A disease control rating” value in the assay with Pythium aphanidermatum is reported as 0%. Besides, the “Test B disease control rating” value in [2] (40 ppm (*)) was 47* %. Also, the “Test L disease control rating” value in assay [3] (40 ppm (*)) was 98* %. The “Test E disease control rating” value with Botrytis cinerea (40 ppm (*)) was 99* %. In addition, the “Test H disease control rating” value in the assay on Septoria nodorum (40 ppm (*)) is 100* %. In addition, in the assay on Phytophthora infestans, the “Test F disease control rating” value came out at 0%. Further, the “Test G disease control rating” value in the assay on Rhizoctonia oryzae (40 ppm (*)) is given as 81* %. Besides, the “Test J disease control rating” value in the assay with Septoria tritici (40 ppm (*)) is 100* %. Further, the “Test I disease control rating” value with fusarium graminearium is on record as 0%.

(Values after US20080194585A1, “Fungicidal Pyrazine Derivatives” (priority 2005, published 2008).)
